The results in this text go back to patent publication US6900194B1, “Use of substituted 4-biarylbutyric and 5-biarylpentanoic acid derivatives as matrix metalloprotease inhibitors for the treatment of respiratory diseases” (Bayer Aktiengesellschaft, priority 1998, dated 2005).

SMILES strings stand for the structures. pIC50, pKi: −log10 of the molar value.

A word on the pKi: it is the Ki on a negative log10 scale, so that one unit is a factor of ten. The term pIC50 denotes −log10 of the IC50, conventionally taken in molar units.

What all share (type): biochemical
In assay [1] the target is T1, MMP-1 (Human Gingival Fibroblast Interstitial Collagenase) (Homo sapiens, UniProt P03956).
T1 construct: Jack Windsor (supplied, not bought)
T1 sequence (P03956 100-469): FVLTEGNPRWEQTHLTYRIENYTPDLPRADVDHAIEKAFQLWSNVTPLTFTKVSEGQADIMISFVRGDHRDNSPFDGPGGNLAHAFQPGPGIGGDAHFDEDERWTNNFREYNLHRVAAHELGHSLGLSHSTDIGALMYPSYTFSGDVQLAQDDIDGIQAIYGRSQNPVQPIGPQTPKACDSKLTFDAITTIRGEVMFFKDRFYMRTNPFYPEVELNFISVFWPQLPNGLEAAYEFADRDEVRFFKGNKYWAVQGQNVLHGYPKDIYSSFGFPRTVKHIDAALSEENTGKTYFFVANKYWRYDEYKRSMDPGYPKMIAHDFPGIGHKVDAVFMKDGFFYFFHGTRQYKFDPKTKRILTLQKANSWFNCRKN
Briefly: P218 quenched fluorescence assay, MMP-1. The conditions noted are these: read-out: Potency Ki vs. MMP-1. The text has this: (§1) P218 Quenched Fluorescence Assay for MMP Inhibition:
(§2) This assay is adapted from the one described by Knight et al., FEBS Letters, 296, 263-266 (1992) for MMP-3 and a related substrate. The rate of hydrolysis of the synthetic substrate H-MCA-Pro-Lys-Pro-Leu-Ala-Leu-DPA-Ala-Arg-NH2 (P218) by the respective MMPs is monitored fluorometrically, using an excitation wavelength of 340 nm and an emission wavelength of 395 nm, in the presence or absence of the test compounds. The substrate is made up initially in 100% DMSO to a concentration of 1×10^−2 M, then diluted in assay buffer to a final concentration of 20 μM. […] The total assay volume in a 96 well microtitre plate is 150 μl, Cleavage of the substrate between the Leu-Ala residues allows the fluorescence of the MCA group to be detected on a fluorometer (Cytofluor II) following excitation at 340 nm and emission at 395 nm. Change in fluorescence is continually monitored for a 40 min period.
(§3) The Ki's are calculated using the method described by Williams and Morrison, Methods in Enzymology, 63, 437-467 (1979) to measure Ki apparent for tight binding inhibitors, and is summarised as follows: [I]0/(1−vi/v0)=Ki apparent ×vi/v0+[E]0 [I]0 and [E]0 are inhibitor and enzyme concentrations, and vi/v0 are reaction velocities with/without inhibitor. […]
(§4) IC50's are determined at each enzyme concentration using Xlfit software. […]

Assay [2] addresses T2, MMP-3 (Stromelysin) (Homo sapiens, UniProt P08254).
T2 construct: Truncated Pro-stromelysin-257 is expressed in a soluble form in E. coli as described by Marcy et al; made in house; host or cells: E. coli
In words: P218 quenched fluorescence assay, MMP-3.
Source text: as §1, §2, §3, §4

Assay [3] deals with T3, MMP-12 (Macrophage Elastase) (Homo sapiens, UniProt P39900).
T3 construct: made in house; host or cells: E. coli BL21 (DE3)
Briefly: P218 quenched fluorescence assay, MMP-12. The following applies: human; read-out: Potency Ki vs. MMP-12.
Source text: as §1
This assay is adapted from the one described by Knight et al., FEBS Letters, 296, 263-266 (1992) for MMP-3 and a related substrate. The rate of hydrolysis of the synthetic substrate H-MCA-Pro-Lys-Pro-Leu-Ala-Leu-DPA-Ala-Arg-NH2 (P218) by the respective MMPs is monitored fluorometrically, using an excitation wavelength of 340 nm and an emission wavelength of 395 nm, in the presence or absence of the test compounds. The substrate is made up initially in 100% DMSO to a concentration of 1×10^−2 M, then diluted in assay buffer to a final concentration of 20 μM. Test compounds (10 mM in DMSO) are diluted in assay buffer at an initial concentration of 0.3-1000 nM. These are diluted to a final concentration in the assay from 0.03 nM to 100 nM. The reaction is initiated by the addition of substrate at a final concentration of 20 μM. The total assay volume in a 96 well microtitre plate is 150 μl, Cleavage of the substrate between the Leu-Ala residues allows the fluorescence of the MCA group to be detected on a fluorometer (Cytofluor II) following excitation at 340 nm and emission at 395 nm. Change in fluorescence is continually monitored for a 40 min period.
The Ki's are calculated using the method described by Williams and Morrison, Methods in Enzymology, 63, 437-467 (1979) to measure Ki apparent for tight binding inhibitors, and is summarised as follows: [I]0/(1−vi/v0)=Ki apparent ×vi/v0+[E]0 [I]0 and [E]0 are inhibitor and enzyme concentrations, and vi/v0 are reaction velocities with/without inhibitor. [I]0 is equal to IC50 when vi is half v0, so that: IC50=0.5×[E]0+Ki apparent
IC50's are determined at each enzyme concentration using Xlfit software. Ki apparent is then determined graphically from the plot of IC50 versus MMP concentration, using the intercepts to estimate Ki apparent. Thus, intercept values at IC50=0 and [E]0=0 are equal to −2×Ki apparent and Ki apparent, respectively. IC50 values are calculated using % inhibition values at each enzyme concentration, ensuring data is taken from the linear part of the reaction rate curves. The Ki can then be calculated from the equation: Ki=Ki apparent/[…] where S=substrate concentration and Km=dissociation constant.
The assay conditions are modified as follows for each of the MMPs used:
MMP-12 (Macrophage Elastase)
[…] is isolated according to the following procedure: Human GenePool cDNA libraries from human lung, spleen, and brain were obtained from Invitrogen (Groningen, The Netherlands). HPLC-purified oligonucleotides were purchased from BioTez (Berlin, Germany), E. coli strain DH5α from Life Technologies (Heidelberg, Germany), strain BL21(DE3) from Novagen (Heidelberg, Germany). Pfu DNA-Polymerase and pBlueScriptII-KS(+) were from Stratagene (Heidelberg, Germany). DNA plasmid and DANN gel isolation kits were purchased from Qiagen (Hilden, Germany). All restriction enzymes and DNA modifying enzymes were ordered from New England Biolabs (Schwalbach, Germany). HiTrapQ (5 ml) was from Pharmacia Biotech (Freiburg, Germany). Vydac C4-RP HPLC columns (214TP54: 300 Å, 5 μm, 4.6×250 mm; 214TP1022: 300 Å, 10 μm, 22×250 mm) were from Promochem (Wesel, Germany). Fluorogenic substrate P218 was purchased from Polypeptide Laboratories (Wolfenbüttel, Germany). Ultrapure urea was purchased from Schwarz-Mann (Cleveland, Ohio). Ready-to-use NuPAGE 10% Bis-Tris Polyacrylamide SDS-PAGE gels and NuPAGE 20×MOPS running buffer were obtained from Novex (Frankfurt/Main, Germany) 10% AMPA and all other chemicals were from Sigma (Deisenhofen, Germany). […]

T2 sequence (P08254 100-274): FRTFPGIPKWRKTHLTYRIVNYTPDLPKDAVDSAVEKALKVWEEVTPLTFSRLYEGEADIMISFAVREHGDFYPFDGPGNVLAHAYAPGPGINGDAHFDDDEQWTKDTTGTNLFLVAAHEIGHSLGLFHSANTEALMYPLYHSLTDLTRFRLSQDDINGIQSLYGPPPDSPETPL
T3 sequence (P39900 106-470): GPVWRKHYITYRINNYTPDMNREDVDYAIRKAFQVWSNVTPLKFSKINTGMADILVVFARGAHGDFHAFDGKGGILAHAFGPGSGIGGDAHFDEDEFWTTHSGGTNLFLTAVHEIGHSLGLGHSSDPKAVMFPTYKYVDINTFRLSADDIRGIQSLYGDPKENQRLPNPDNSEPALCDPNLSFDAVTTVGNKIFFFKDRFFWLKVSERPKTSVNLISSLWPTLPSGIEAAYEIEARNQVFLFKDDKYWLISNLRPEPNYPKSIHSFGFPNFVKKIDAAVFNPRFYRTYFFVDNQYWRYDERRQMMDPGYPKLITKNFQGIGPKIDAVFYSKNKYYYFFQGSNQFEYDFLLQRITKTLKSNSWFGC

For the compound `O=C(CC(CCN1C(=O)c2ccccc2C1=O)C(=O)O)c1ccc(-c2ccc(Cl)cc2)cc1` (single isomer, unassigned; (+)) [Example 4, (+)-4-(4′-Chloro[1,1′-biphenyl]4-yl)-2-[2-(1,3-dioxo-1,3-dihydro-2H-isoindol-2-yl)ethyl]-4-oxobutanoic acid], the negative logarithm of the Ki (pKi) in assay [1] is 6.19; in assay [2] (read-out: Potency Ki vs. MMP-3), 8.43; in assay [3], 9.52.
Regarding `CCOc1ccc(-c2ccc(C(=O)CC(CCN3C(=O)c4ccccc4C3=O)C(=O)O)cc2)cc1` (single isomer, unassigned; (+)) [Example 2, (+)-2-[2-(1,3-Dioxo-1,3-dihydro-2H-isoindol-2-yl)ethyl]-4-(4′-ethoxy[1,1′-biphenyl]-4-yl)-4-oxobutanoic acid], the values for the pKi in assay [1] and in assay [3] were less than 5.52 and 10.52, respectively. Moreover, the pIC50 in assay [2] (read-out: IC50 vs. MMP-3 (value marked *)) is 7.22.
